Marks after values point to notes of the source that are not given here.
How the values were obtained:
[1] = test system: Salmonella typhimurium strains TA100 and TA98; experiment: Ames MPF 98/100 Mutagenicity Assay; format: cell-based; conditions: up to 100 μM, +/−S9, FIG. 12
Experimental: The compound 12 was tested using Ames MPF™ 98/100 Mutagenicity Assay kit (Aniara, Ohio) that is employing Salmonella typhimurium strains TA100 (for the detection of base substitution mutations) and TA98 (for the detection of frameshift mutations) according to the instructions for use.

[2] = Calcein AM viability/cytotoxicity assay, MRC-5; format: cell-based; conditions: human, MRC-5 lung fibroblasts; MRC-5, 72 h, FIG. 11; read-out: IC50, concentration reducing number of viable cells to 50%
Excerpt: Absence of toxic effects against mammalian (especially human) cell lines in a wide concentration range is one of the requirements on compounds intended for use in agriculture and medicine. Because toxic compounds negatively influence metabolic processes in cells, many standard cytotoxicity assays are based on measurement of metabolisation rate of various artificial substrates. Resulting product is then quantified e.g. by means of spectrometry. The assays can be easily modified for use in 96-well plates. For evaluation of cytotoxic effect of compounds of this invention, a microtiter assay based on quantification of metabolisation of Calcein AM was used. The assay is widely used in drug screening programs and in chemosensitivity testing. In live cells, Calcein AM is enzymatically hydrolysed and accumulation of resulting calcein is manifested by green fluorescence. The cytotoxicity of the studied compounds was determined with human fibroblast lines MRC-5 (lung fibroblasts) and BJ (foreskin fibroblasts). […] The fluorescence of the live cells was measured at 485 nm/538 nm (excitation/emission) with a Fluoroskan Ascent microplate reader (Labsystems). […]

[3] = test system: Arabidopsis (ecotype Col-0); experiment: Drenching application, morphological and yield traits of Arabidopsis in soil; format: in vivo
Experimental: To test the effect on wild-type plants Arabidopsis (ecotype Col-0) was grown in soil in controlled conditions in a growth chambre (16 hours light/8 hours dark; light intensity 120 […]; 22° C.; 60% humidity). In the stage of app. the middle of the principal growth stage 1 and the beginning of principal growth stage 5 (according to Arabidopsis growth stages described by Boyes et al., 2001) 1-10 mL of the compound 12 was applied regulary every third day in 0.1 and 1 μM concentration in different application rates (experiment 1-1 mL of 1 μM compound 12 water solution 12-times; experiment 2-10 mL of 0.1 and 1 μM compound 12 water solution 1-, 3- and 5-times) by drenching to each plant pot. DMSO (0.01%) was used as a solvent control. The plants were grown till the end of the generative stage and then morphological parametres (primary inflorescence stem length, number of auxiliary branches, number of lateral branches, fresh shoot biomass, number of flowers, number of siliques) and the seed yield were recorded.

In the case of `COc1cccc(Nc2nc(Cl)nc3c2ncn3C2CCCCO2)c1` (stereo not shown) [compound 12, 2-chloro-6-(3-methoxyanilino)-9-(tetrahydropyran-2-yl)purine], the “mutagenic potential in Ames test” value [1] is reported as “did not score positively”, the IC50 at 72 h [2] is reported as greater than 100 µM and the “No. of auxiliary branches” value ([3]; 0.1 μM, application rate 1x) is reported as 4.06 ± 1.3. The “No. of auxiliary branches (% of control)” value ([3]; 0.1 μM, application rate 1x) was “(113%)”, the No. of flowers ([3]; 0.1 μM, application rate 1x) was 116.12 ± 70 and the “No. of flowers (% of control)” value ([3]; 0.1 μM, application rate 1x) was “(153%)*”. For the same compound, the “No. of lateral branches” value ([3]; 0.1 μM, application rate 1x) was 8.59 ± 3.1, the “No. of lateral branches (% of control)” value ([3]; 0.1 μM, application rate 1x) was “(182%)***” and the No. of siliques ([3]; 0.1 μM, application rate 1x) was 133.94 ± 47. For the same compound, the “No. of siliques (% of control)” value ([3]; 0.1 μM, application rate 1x) was “(100%)”, the fresh shoot biomass ([3]; 0.1 μM, application rate 1x) was 1.18 ± 0.4 g and the “fresh shoot biomass (% of control)” value ([3]; 0.1 μM, application rate 1x) was “(108%)”. The “primary inflorescence stem length” value ([3]; 0.1 μM, application rate 1x) was 32.78 ± 5.5 cm, the “primary inflorescence stem length (% of control)” value ([3]; 0.1 μM, application rate 1x) was “(98%)” and the “seed yield per plant” value ([3]; 0.1 μM, application rate 1x) was 0.30 ± 0.1 g. The “seed yield per plant (% of control)” value ([3]; 0.1 μM, application rate 1x) was “(102%)”, the “No. of auxiliary branches” value ([3]; 0.1 μM, application rate 3x) was 3.82 ± 0.6 and the “No. of auxiliary branches (% of control)” value ([3]; 0.1 μM, application rate 3x) was “(106%)”. The No. of flowers ([3]; 0.1 μM, application rate 3x) was 91.23 ± 50.1, the “No. of flowers (% of control)” value ([3]; 0.1 μM, application rate 3x) was “(120%)” and the “No. of lateral branches” value ([3]; 0.1 μM, application rate 3x) was 8.35 ± 3.3. The “No. of lateral branches (% of control)” value ([3]; 0.1 μM, application rate 3x) was “(177%)***”, the No. of siliques ([3]; 0.1 μM, application rate 3x) was 154.29 ± 25.6 and the “No. of siliques (% of control)” value ([3]; 0.1 μM, application rate 3x) was “(115%)”. For the same compound, the fresh shoot biomass ([3]; 0.1 μM, application rate 3x) was 1.16 ± 0.2 g, the “fresh shoot biomass (% of control)” value ([3]; 0.1 μM, application rate 3x) was “(106%)” and the “primary inflorescence stem length” value ([3]; 0.1 μM, application rate 3x) was 39.6 ± 3.8 cm. For the same compound, the “primary inflorescence stem length (% of control)” value ([3]; 0.1 μM, application rate 3x) was “(119%)***”, the “seed yield per plant” value ([3]; 0.1 μM, application rate 3x) was 0.31 ± 0.1 g and the “seed yield per plant (% of control)” value ([3]; 0.1 μM, application rate 3x) was “(106%)”. For the same compound, the “No. of auxiliary branches” value ([3]; 0.1 μM, application rate 5x) was 3.94 ± 1.1, the “No. of auxiliary branches (% of control)” value ([3]; 0.1 μM, application rate 5x) was “(109%)” and the No. of flowers ([3]; 0.1 μM, application rate 5x) was 99.59 ± 59.3. For the same compound, the “No. of flowers (% of control)” value ([3]; 0.1 μM, application rate 5x) was “(131%)”, the “No. of lateral branches” value ([3]; 0.1 μM, application rate 5x) was 9.82 ± 4.4 and the “No. of lateral branches (% of control)” value ([3]; 0.1 μM, application rate 5x) was “(208%)***”. The No. of siliques ([3]; 0.1 μM, application rate 5x) was 141.24 ± 31.7, the “No. of siliques (% of control)” value ([3]; 0.1 μM, application rate 5x) was “(105%)” and the fresh shoot biomass ([3]; 0.1 μM, application rate 5x) was 1.18 ± 0.3 g. For the same compound, the “fresh shoot biomass (% of control)” value ([3]; 0.1 μM, application rate 5x) was “(108%)”, the “primary inflorescence stem length” value ([3]; 0.1 μM, application rate 5x) was 38.61 ± 5.2 cm and the “primary inflorescence stem length (% of control)” value ([3]; 0.1 μM, application rate 5x) was “(116%)***”. For the same compound, the “seed yield per plant” value ([3]; 0.1 μM, application rate 5x) was 0.35 ± 0.1 g, the “seed yield per plant (% of control)” value ([3]; 0.1 μM, application rate 5x) was “(120%)” and the “No. of auxiliary branches” value ([3]; 1 μM, application rate 1x) was 4.29 ± 1.5. For the same compound, the “No. of auxiliary branches (% of control)” value ([3]; 1 μM, application rate 1x) was “(119%)”, the No. of flowers ([3]; 1 μM, application rate 1x) was 139.65 ± 51.7 and the “No. of flowers (% of control)” value ([3]; 1 μM, application rate 1x) was “(184%)***”. The “No. of lateral branches” value ([3]; 1 μM, application rate 1x) was 13.35 ± 4.7, the “No. of lateral branches (% of control)” value ([3]; 1 μM, application rate 1x) was “(283%)***” and the No. of siliques ([3]; 1 μM, application rate 1x) was 134.82 ± 31.1. For the same compound, the “No. of siliques (% of control)” value ([3]; 1 μM, application rate 1x) was “(100%)”, the fresh shoot biomass ([3]; 1 μM, application rate 1x) was 1.17 ± 0.3 g and the “fresh shoot biomass (% of control)” value ([3]; 1 μM, application rate 1x) was “(107%)”. For the same compound, the “primary inflorescence stem length” value ([3]; 1 μM, application rate 1x) was 32.66 ± 3.8 cm, the “primary inflorescence stem length (% of control)” value ([3]; 1 μM, application rate 1x) was “(98%)” and the “seed yield per plant” value ([3]; 1 μM, application rate 1x) was 0.37 ± 0.1 g. The “seed yield per plant (% of control)” value ([3]; 1 μM, application rate 1x) was “(126%)”, the “No. of auxiliary branches” value ([3]; 1 μM, application rate 3x) was 4.29 ± 1.1 and the “No. of auxiliary branches (% of control)” value ([3]; 1 μM, application rate 3x) was “(119%)*”. For the same compound, the No. of flowers ([3]; 1 μM, application rate 3x) was 118.53 ± 36.6, the “No. of flowers (% of control)” value ([3]; 1 μM, application rate 3x) was “(156%)***” and the “No. of lateral branches” value ([3]; 1 μM, application rate 3x) was 13.50 ± 3.9. For the same compound, the “No. of lateral branches (% of control)” value ([3]; 1 μM, application rate 3x) was “(286%)***”, the No. of siliques ([3]; 1 μM, application rate 3x) was 155.29 ± 44.1 and the “No. of siliques (% of control)” value ([3]; 1 μM, application rate 3x) was “(116%)”. The fresh shoot biomass ([3]; 1 μM, application rate 3x) was 1.23 ± 0.3 g, the “fresh shoot biomass (% of control)” value ([3]; 1 μM, application rate 3x) was “(113%)” and the “primary inflorescence stem length” value ([3]; 1 μM, application rate 3x) was 39.07 ± 3.2 cm. For the same compound, the “primary inflorescence stem length (% of control)” value ([3]; 1 μM, application rate 3x) was “(117%)***”, the “seed yield per plant” value ([3]; 1 μM, application rate 3x) was 0.36 ± 0.1 g and the “seed yield per plant (% of control)” value ([3]; 1 μM, application rate 3x) was “(122%)”. For the same compound, the “No. of auxiliary branches” value ([3]; 1 μM, application rate 5x) was 4.50 ± 1.3, the “No. of auxiliary branches (% of control)” value ([3]; 1 μM, application rate 5x) was “(125%)” and the No. of flowers ([3]; 1 μM, application rate 5x) was 143.56 ± 66.3. For the same compound, the “No. of flowers (% of control)” value ([3]; 1 μM, application rate 5x) was “(189%)***”, the “No. of lateral branches” value ([3]; 1 μM, application rate 5x) was 16.44 ± 6.1 and the “No. of lateral branches (% of control)” value ([3]; 1 μM, application rate 5x) was “(349%)***”. For the same compound, the No. of siliques ([3]; 1 μM, application rate 5x) was 220.00 ± 37.4, the “No. of siliques (% of control)” value ([3]; 1 μM, application rate 5x) was “(164%)***” and the fresh shoot biomass ([3]; 1 μM, application rate 5x) was 1.81 ± 0.3 g. For the same compound, the “fresh shoot biomass (% of control)” value ([3]; 1 μM, application rate 5x) was “(166%)***”, the “primary inflorescence stem length” value ([3]; 1 μM, application rate 5x) was 44.66 ± 5.9 cm and the “primary inflorescence stem length (% of control)” value ([3]; 1 μM, application rate 5x) was “(134%)***”. For the same compound, the “seed yield per plant” value ([3]; 1 μM, application rate 5x) was 0.33 ± 0.1 g, the “seed yield per plant (% of control)” value ([3]; 1 μM, application rate 5x) was “(111%)” and the overall shoot biomass ([3]; experiment 1: 1 mL of 1 μM, 12-times, drenching, FIG. 8) was “stimulation of the overall shoot biomass”. For the same compound, the “increase of fresh shoot biomass compared to control” value ([3]; experiment 2, higher doses) was 6-22%, the “increase of number of auxiliary branches compared to control” value ([3]; experiment 2, higher doses) was 6-25% and the “increase of number of flowers compared to control” value ([3]; experiment 2, higher doses) was 20-89%. For the same compound, the “increase of number of lateral branches compared to control” value ([3]; experiment 2, higher doses) was 77-249%, the “increase of number of siliques compared to control” value ([3]; experiment 2, higher doses) was 5-66% and the “increase of primary inflorescence stem length compared to control” value ([3]; experiment 2, higher doses) was 16-34%. The “increase of seed yield compared to control” value ([3]; experiment 2, higher doses) was 6-26%.

Source: patent publication US10662194B2, “Substituted 6-anilino-9-heterocyclylpurine derivatives for inhibition of plant stress” (UNIVERZITA PALACKEHO V OLOMOUCI, priority 2014, dated 2020)
